# Data published in ChEMBL document CHEMBL4052622, “Geldanamycin-inspired compounds induce direct trans-differentiation of human mesenchymal stem cells to neurons” (Eur J Med Chem, 2017).
# The source made the active and inactive calls. The rule behind the calls is not given here.
# Legend:
# Type in all cases: functional, cell-based
# MSC [1] = assay: Induction of differentiation of human umbilical cord tissue-derived MSC to neurons assessed as upregulation of nestin levels at 10 uM after 11 days by End PCR analysis
# MSC [2] = assay: Induction of differentiation of human umbilical cord tissue-derived MSC to neurons assessed as upregulation of agrin levels at 10 uM after 11 days by End PCR analysis
# MSC [3] = assay: Induction of differentiation of human umbilical cord tissue-derived MSC to neurons assessed as upregulation of RTN4 levels at 10 uM after 11 days by End PCR analysis
# MSC [4] = assay: Induction of differentiation of human umbilical cord tissue-derived MSC to neurons assessed as phenotypic changes in cell at 10 uM after 11 days by End PCR analysis
Compound,Activity (MSC [1]),Activity (MSC [2]),Activity (MSC [3]),Activity (MSC [4])
CO[C@H]1[C@@H](OC)C[C@H](C)Cn2cc(nn2)COC(=O)/C(C)=C/CC[C@H](OC)[C@H](CO[Si](C)(C)C(C)(C)C)OC(=O)[C@@H]1C,Active,Active,Active,
CO[C@@H](C[C@H](C)CO)[C@H](O)[C@@H](C)C(=O)N1C(=O)OC[C@H]1Cc1ccccc1,Active,Active,Active,Active
CO[C@H]1[C@@H](OC)C[C@H](C)Cn2cc(nn2)COC(=O)/C(C)=C/CC[C@H](OC)[C@H](CO)OC(=O)[C@@H]1C,Active,Active,Active,Active
CO[C@@H]([C@H](C[C@H](C)CN=[N+]=[N-])OC)[C@@H](C)C(=O)N1C(=O)OC[C@H]1Cc1ccccc1,inactive,Active,Active,
CO[C@H]1[C@@H](OC)C[C@H](C)Cn2cc(nn2)COC(=O)/C(C)=C/C=C\[C@H](OC)[C@H](CO[Si](C)(C)C(C)(C)C)OC(=O)[C@@H]1C,Active,Active,Active,
